Tested on: Blood
Assay: Inhibition of thrombin-induced platelet aggregation in human blood at 100 uM by turbidimetric method
Type: functional

Structure (SMILES)	inhibition at 100 µM [%]
O=C(/C=C/c1ccnn(Cc2ccccc2)c1=O)c1ccccc1	40

Tested on: Blood
Assay: Inhibition of thrombin-induced platelet aggregation in human blood by turbidimetric method
Type: functional, tissue-based

Structure (SMILES)	IC50 [µM]
O=C(/C=C/c1ccc(=O)n(Cc2ccccc2)n1)c1ccccc1	60
O=C(/C=C/c1ccc(=O)n(-c2ccccc2)n1)c1ccccc1	12
O=C(/C=C/C1=C(/C=C/C(=O)c2ccccc2)CN(c2ccccc2)N=C1)c1ccccc1	1.98
CN1CC(/C=C/C(=O)c2ccccc2)=C(/C=C/C(=O)c2ccccc2)C=N1	6.15
O=C1C(CC[S+]([O-])c2ccccc2)C(=O)N(c2ccccc2)N1c1ccccc1 (centres undefined) [SULFINPYRAZONE]	509
O=C(/C=C/c1ccnn(-c2ccccc2)c1=O)c1ccccc1	17.6
Cc1[nH]c(=O)c(C#N)cc1-c1ccncc1 [MILRINONE]	4.7
O=C(/C=C/c1ccccc1)c1ccccc1 [CHALCONE]	163
O=C(/C=C/c1cnn(Cc2ccccc2)c(=O)c1)c1ccccc1	4.2

Next, values leading:

IC50 [µM]	Structure (SMILES)
3.3	O=C(/C=C/c1cnn(-c2ccccc2)c(=O)c1)c1ccccc1
37.1	Cn1nccc(/C=C/C(=O)c2ccccc2)c1=O
15.7	Cn1ncc(/C=C/C(=O)c2ccccc2)cc1=O
13.4	Cn1nc(/C=C/C(=O)c2ccccc2)ccc1=O
